Experiment [1] relates to MMP-3 levels in supernatant of chondrocytes stimulated with IL1-β. In words: Chondrocyte protection assay compound screening (MMP-3 LANCE Ultra). The class given is cell-based, human. The note with it: Homo sapiens, Chondrocyte, IL1-β 10 ng/mL overnight, 11-point curves from 3 μM to 0.05 nM; for Emax: read-out: Maximum % Inhibition. As for the experimental part:
Human Chondrocyte Cell Culture: Primary human chondrocytes were purchased from Lonza (Walkersville, Md.) and expanded in Chondrocyte Growth Media (CGM, Lonza). Cells between passage 2 and 5 were used for the experiments.
Chondrocytes were plated at 8,000 cells/well in 40 μL/well Chondrocyte Differentiation Medium (Lonza; 500 mL Basal Medium, 25 mL FBS, 0.5 mL GA-1000, 1 mL R3-IGF, 2.5 mL bFGF, 0.5 mL Transferrin, and 1 mL Insulin). After 2 hours of incubation at 37° C. and 5% CO2, IL1-β (Peprotech, Rocky Hill, N.J.) was added to a final concentration of 10 ng/mL. 11 wells in 1 row were left unstimulated for normalization and calculating EC50 values. Cells were incubated at 37° C. and 5% CO2 overnight. Assay plates are spun, 25 μl of supernatant media was collected using (S2 pipettor, Apricot Designs). Cells were lysed using 10 μL of (Cell Titer-Glo, Promega). Luminescent signal detected using an En Vision Multilabel reader (Perkin Elmer). MMP-3 levels were measured in supernatant. Supernatant diluted 1:7 in DMEM. MMP-3 levels in the supernatant were measured using MMP-3 LANCE Ultra detection kit (Perkin Elmer). Briefly, 5 μL of diluted supernatant was transferred to low-volume 384 well plates using (S2 pipettor, Apricot Designs). A standard curve was prepared using MMP-3 analyte (range […]). 1.7 μL of 8× mix of Eu-labelled anti-MMP-3 antibody and ULight labelled anti-MMP-3 antibody was added to the plates using Mantis Liquid handler (Formulatrix). Plates were incubated overnight at room temperature. LANCE signal was detected using an EnVision Multilabel reader (Perkin Elmer), equipped with TR-FRET using excitation wavelength of 320 nm and two emission wavelengths of 615 nm and 665 nm. Data was analyzed according to the kit protocol, using the ratio of […] and the standard curve values were used to calculate the amount of MMP3 in the […] (in pg/ml). The normalized averages (fold change over IL1-β stimulated) for each compound concentration were calculated. EC50 and maximum % inhibition values were calculated using the dose-response nonlinear regression curve-fit in Dotmatics.
In general terms: In TR-FRET formats the signal depends on donor and acceptor labels being close together.

The test system of experiment [2] is Wnt pathway activity (SW480 colon carcinoma cells stably expressing the Sp5-Luc reporter). Kind of experiment: Wnt pathway activity screening assay (Sp5-Luc reporter gene assay). The following applies: Homo sapiens, SW480, Table 4; SW480 cells stably expressing Sp5-Luc reporter, 10-point dose-response from 10 μM, 36 to 48 hours. In general terms: Reporter assays use an easily measured gene product as a stand-in for the process of interest.

Experiment [3] has as its target CLK2 kinase (Homo sapiens, UniProt P49760). In words: CLK2 kinase activity assay (Z-lyte FRET).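 Also: FRET read-out as coumarin to fluorescein emission ratio, unphosphorylated peptide as 0% and phosphorylated peptide as 100% controls, duplicate reactions, non-linear regression fit of dose-response curves.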 The following applies: Z-lyte Ser/Thr 6 peptide, 60 μM ATP, 1 h at room temperature. The class given is biochemical.
Experiment [4] relates to primary human mesenchymal stem cells (hMSCs). In words: Chondrogenesis screening using primary human mesenchymal stem cells. The class given is cell-based. The following applies: Homo sapiens, Mesenchymal stem cells, hMSC chondrogenesis; for Emax: maximum activity relative to TGF-β3 (10 ng/mL) positive control, read-out: Max. Activity as % TGF-β3 activity; for EC50: concentration required to induce 50% levels of chondrogenesis with TGF-β3 as positive control, read-out: Conc (nM) of 50% TGF-β3 activity. The procedure, abridged: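 Derived values are EC50 for 50% chondrogenesis, maximal activity and the dose giving it. These come from nodule area in passage 3–6 primary hMSCs, expressed as fold change over the mean of 3 same-plate DMSO wells, 2–3 replicates per concentration. TGF-β3 served as positive control.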

The target of experiment [5] is CLK3 kinase (Homo sapiens, UniProt P49761). Kind of experiment: CLK3 kinase activity assay (Z-lyte FRET).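 Also: kinase activity read as coumarin/fluorescein emission ratio by FRET, unphosphorylated peptide as 0% and phosphorylated peptide as 100% control, values from non-linear regression of dose-response curves.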 Type of experiment: biochemical. The following applies: Z-lyte Ser/Thr 18 peptide, 156 μM ATP, 1 h at room temperature.
Sequence of CLK3 kinase (P49761 whole entry): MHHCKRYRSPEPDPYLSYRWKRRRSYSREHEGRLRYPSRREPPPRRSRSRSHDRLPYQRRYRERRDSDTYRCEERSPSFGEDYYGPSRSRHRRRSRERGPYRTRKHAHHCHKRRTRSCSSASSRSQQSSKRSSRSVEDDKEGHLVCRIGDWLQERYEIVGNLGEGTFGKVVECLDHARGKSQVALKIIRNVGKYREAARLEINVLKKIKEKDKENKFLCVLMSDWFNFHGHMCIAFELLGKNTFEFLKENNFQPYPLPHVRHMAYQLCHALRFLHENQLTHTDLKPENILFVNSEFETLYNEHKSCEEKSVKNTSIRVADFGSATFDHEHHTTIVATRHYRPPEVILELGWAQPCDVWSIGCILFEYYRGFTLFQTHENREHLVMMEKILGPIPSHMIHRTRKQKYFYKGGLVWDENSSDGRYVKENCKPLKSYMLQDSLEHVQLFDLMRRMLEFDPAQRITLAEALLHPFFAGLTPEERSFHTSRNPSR

pEC50: −log10 of the molar value.

Sequence of CLK2 kinase (P49760 whole entry): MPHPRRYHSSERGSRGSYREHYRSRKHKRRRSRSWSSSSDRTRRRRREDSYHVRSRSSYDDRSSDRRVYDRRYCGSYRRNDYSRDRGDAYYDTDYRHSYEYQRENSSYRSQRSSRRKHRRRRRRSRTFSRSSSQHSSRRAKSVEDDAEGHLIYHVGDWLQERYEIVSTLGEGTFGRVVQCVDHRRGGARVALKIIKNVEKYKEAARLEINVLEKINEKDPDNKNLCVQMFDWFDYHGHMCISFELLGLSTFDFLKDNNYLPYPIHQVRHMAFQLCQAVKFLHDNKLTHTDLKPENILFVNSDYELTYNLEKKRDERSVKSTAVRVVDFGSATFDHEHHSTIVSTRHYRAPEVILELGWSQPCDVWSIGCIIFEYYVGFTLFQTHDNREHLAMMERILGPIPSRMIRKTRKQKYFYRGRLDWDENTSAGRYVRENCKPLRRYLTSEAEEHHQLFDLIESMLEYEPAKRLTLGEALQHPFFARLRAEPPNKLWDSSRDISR

Usually pEC50 stands for the negative decadic logarithm of the EC50, by convention in mol/L. Low values mean a large EC50, high ones a small EC50. Consider `O=C(Nc1cc2cc(-c3cnco3)cnc2cn1)C1CCNCC1` [compound 641], for which, in experiment [1], the negative logarithm of the EC50 (pEC50) is 7.45 and the Emax was found to be 48.4%. The compound also showed a negative-log EC50 (pEC50) in experiment [2] of less than 5.00.
With `Cc1n[nH]c2ccc(-c3cncc(NC(CO)Cc4cccc(C(F)(F)F)c4)n3)cc12` (centres unmarked) [compound 51], in experiment [1], the pEC50 is not above 5.52 and the Emax turned out to be 48.1%. This compound gave a negative logarithm of the EC50 (pEC50) in experiment [2] of 6.09.
For the compound `Fc1ccc(-c2cccc3[nH]c(-c4n[nH]c5ncc(-c6cncc(CN7CCCCC7)c6)cc45)cc23)cc1` [compound 634], the pEC50 in experiment [3] is 8.10; in experiment [1], 7.34; in experiment [2], 5.44. For the same compound, the Emax in experiment [1] turned out to be 83.8%.
In the case of `O=C(Nc1cncc(-c2cc3c(-c4cc5c(-c6cccc(F)c6)ccnc5[nH]4)n[nH]c3cn2)c1)C1CC1` [compound 636], the pEC50 was 8.05 in experiment [3], 6.53 in experiment [1] and 7.01 in experiment [2]. For the same compound, the Emax in experiment [1] was 64.5%.
For `O=C(Nc1cncc(-c2ccc3[nH]nc(-c4nc5c(-c6cccs6)cccc5[nH]4)c3n2)c1)C1CC1` [compound 631] the same measures were 8.00, 8.17, 5.47 and 72%.
Consider `O=C(NC1C[C@@H]1c1ccccc1)c1n[nH]c2ccc(-c3cccnc3)cc12` (some centres unmarked) [compound 59], for which, in experiment [1], the pEC50 was 8.80 and the Emax was found to be 99.2%. Further, the negative-log EC50 (pEC50) in experiment [2] is 5.86.
For `CN1CCC(C(=O)Nc2cc3cc(-c4cnsc4)cnc3cn2)CC1` [compound 639] the same measures were not above 5.52, 43.7% and less than 5.00.
With `COc1cncc(C#Cc2c[nH]nc2C(=O)Nc2ccc(OCCN3CCCC3)nc2)c1` [compound 31], the pEC50 in experiment [3] was 7.55; in experiment [1], not above 5.52; in experiment [2], 5.92. The Emax in experiment [1] is 2.4%.
Consider `COc1cncc(C#Cc2c[nH]nc2C(=O)Nc2ccc(OC3CCN(C)CC3)nc2)c1` [compound 30], for which the figures for the pEC50 in experiment [3], in experiment [1] and in experiment [2] were 7.74, not above 5.52 and 5.45, respectively. The Emax in experiment [1] amounted to 3.4%.
Take `O=C(NC1C[C@@H]1c1ccccc1)c1n[nH]c2ccc(-c3cncc(CN4CCCCC4)c3)cc12` (some centres unmarked) [compound 76]: in experiment [1], the pEC50 was 9.40 and the Emax turned out to be 97.9%. The compound further showed a pEC50 in experiment [2] of 5.99.
As for `Fc1cccc(-c2cncc3[nH]c(-c4n[nH]c5ccc(-c6cnccn6)nc45)nc23)c1` [compound 625], the results for the pEC50 in experiment [3], in experiment [1] and in experiment [2] were 8.30, not above 5.52 and less than 5.00, respectively. For the same compound, the Emax in experiment [1] came out at 70.9%.
Consider `Cc1n[nH]c2cc(F)c(-c3cncc(OC4CCNC[C@@H]4F)n3)cc12` (some centres unmarked) [compound 46], for which the Emax in experiment [4] was found to be 43.8%; in experiment [1], 100%. The negative logarithm of the EC50 (pEC50) in experiment [1] is 5.98; in experiment [2] it was 6.20.
In the case of `COc1cncc(-c2ccc3[nH]nc(-c4nc5c(N6CCCCC6)ccnc5[nH]4)c3n2)c1` [compound 632], the pEC50 in experiment [3] was 8.52; in experiment [1], 6.91; in experiment [2] it was less than 5.00. Moreover, in experiment [1], the Emax was determined as 72.2%.
With `Cc1n[nH]c2ccc(-c3cncc(OC[C@@H](N)Cc4ccccc4)c3)cc12` [compound 35], the negative logarithm of the EC50 (pEC50) in experiment [1] is not above 5.52; in experiment [2] it was 6.58. In experiment [1], the Emax turned out to be 99.3%.
As to `c1ccc2[nH]c(-c3n[nH]c4ncc(-c5cncc(CN6CCCC6)c5)cc34)cc2c1` [compound 444], the negative-log EC50 (pEC50) in experiment [3] was 8.05; in experiment [5] it was 6.44; in experiment [2], 5.85. Further, the EC50 in experiment [4] is 10 nM. The Emax in experiment [4] is 97.6%.
As for `O=C(Nc1cncc(-c2cc3c(-c4cc5cccnc5[nH]4)n[nH]c3cn2)c1)C1CC1` [compound 427], the results for the negative-log EC50 (pEC50) in experiment [3], in experiment [5] and in experiment [2] were 8.05, 5.01 and less than 5.00, respectively. Moreover, the Emax in experiment [4] turned out to be 17.7%.
`CN1CCN(c2ccnc3[nH]c(-c4n[nH]c5cnc(-c6cncc(CNCC7CCCC7)c6)cc45)cc23)CC1` [compound 489]: the values for the negative-log EC50 (pEC50) in experiment [3], in experiment [5] and in experiment [2] were 7.72, 6.47 and less than 5.00, respectively. Further, the EC50 in experiment [4] was determined as 300 nM. Besides, the Emax in experiment [4] was determined as 150%.
Turning to `FC1(F)CCN(Cc2cncc(-c3ccc4[nH]nc(-c5cc6cccnc6[nH]5)c4n3)c2)C1` [compound 447], the results for the negative-log EC50 (pEC50) in experiment [3], in experiment [5] and in experiment [2] were 8.70, 7.43 and 6.98, respectively. In addition, in experiment [4], the EC50 is 100 nM. Besides, the Emax in experiment [4] was 134%.
Regarding `CC(C)C(=O)Nc1cncc(-c2cc3c(-c4cc5cnccc5[nH]4)n[nH]c3cn2)c1` [compound 419], the negative-log EC50 (pEC50) in experiment [3] was 9.00; in experiment [5], 7.80; in experiment [2], 6.40. For the same compound, the EC50 in experiment [4] turned out to be 30 nM. Also, the Emax in experiment [4] amounted to 61.2%.
Consider `CN(C)Cc1cncc(-c2ccc3[nH]nc(-c4cc5c(N6CCCCC6)cccc5[nH]4)c3c2)c1` [compound 464], for which the pEC50 was 7.89 in experiment [3], 5.44 in experiment [5] and 6.24 in experiment [2]. Moreover, the EC50 in experiment [4] worked out at 10 nM. For the same compound, in experiment [4], the Emax was 205%.
For `CN(C)CCNc1cc(F)cc(-c2ccnc3[nH]c(-c4n[nH]c5ccc(-c6cncc(CN7CCCCC7)c6)nc45)cc23)c1` [compound 514], the negative logarithm of the EC50 (pEC50) in experiment [3] was 8.40; in experiment [5] it was 7.31; in experiment [2], 5.90. For the same compound, in experiment [4], the Emax was 48.5%.
`CC(C)(C)CC(=O)Nc1cncc(-c2cnc3[nH]nc(-c4cc5c(-c6cccnc6)cncc5[nH]4)c3c2)c1` [compound 353]: the pEC50 is 8.52 in experiment [3], 7.07 in experiment [5] and less than 5.00 in experiment [2]. The Emax in experiment [4] was 37.3%.
Consider `CCNCc1cncc(-c2ccc3[nH]nc(-c4cc5ccccc5[nH]4)c3c2)c1` [compound 438], for which the negative-log EC50 (pEC50) in experiment [3] is 8.40; in experiment [5], 6.57; in experiment [2], 6.40. The EC50 in experiment [4] came to 10 nM. Moreover, the Emax in experiment [4] turned out to be 532%.
On to `CC(C)C(=O)Nc1cncc(-c2cc3c(-c4cc5c(N6CCN(C)CC6)cccc5[nH]4)n[nH]c3cn2)c1` [compound 474], for which the pEC50 is 7.77 in experiment [3], 5.69 in experiment [5] and 6.15 in experiment [2]. Moreover, the Emax in experiment [4] was found to be 36.4%.
Take `CCC(=O)Nc1cncc(-c2ccc3[nH]nc(-c4nc5c(N6CCCCC6)cncc5[nH]4)c3n2)c1` [compound 206]: the values for the pEC50 in experiment [3], in experiment [5] and in experiment [2] were 7.92, 6.67 and less than 5.00, respectively. For the same compound, the EC50 in experiment [4] was found to be 900 nM. Besides, in experiment [4], the Emax was found to be 69.8%.
Turning to `O=C(CC1CCNCC1)Nc1cncc(-c2ccc3[nH]nc(-c4cc5c(-c6ccoc6)ccnc5[nH]4)c3n2)c1` [compound 501], the pEC50 is 7.96 in experiment [3], 6.38 in experiment [5] and less than 5.00 in experiment [2]. The EC50 in experiment [4] was 10 nM. In addition, the Emax in experiment [4] came out at 102%.
Regarding `CN(C)CCNc1cc(F)cc(-c2ccnc3[nH]c(-c4n[nH]c5cnc(-c6cncc(NC(=O)C(C)(C)C)c6)cc45)cc23)c1` [compound 513], the pEC50 was 8.22 in experiment [3], 7.31 in experiment [5] and 6.41 in experiment [2]. Moreover, the EC50 in experiment [4] was 10 nM. The Emax in experiment [4] was 87.3%.
For `O=C(Nc1cncc(-c2cnc3[nH]nc(-c4cc5cnccc5[nH]4)c3c2)c1)c1ccccc1` [compound 435], the values for the pEC50 in experiment [3], in experiment [5] and in experiment [2] were 8.70, 7.34 and less than 5.00, respectively. Besides, in experiment [4], the EC50 stood at 30 nM. Moreover, in experiment [4], the Emax stood at 69.9%.

Source of the values: US20230000842A1, “METHODS OF TREATING CARTILAGE DISORDERS THROUGH INHIBITION OF CLK AND DYRK” (SAMUMED, LLC, priority 2019, published 2023).
